Laboratory results as given in the supplement of paper PMC10307832.

Experiments:
Experiment in all cases: relative viability (nuclei count vs DMSO), 5 days (fraction); higher = more cells survive
[1] = compound: CCN1C(=O)C2=CC(=C(N=C2N(C1=O)C3CC3)N)C(=O)N + N=C(N)NC(=N)NCCc1ccccc1 [Phenformin] (partner 250 µM)
Method in brief: (§1)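 Values are medians from duplicate plates. Each reflects relative viability, defined as the nuclei count of treated wells over that of vehicle wells. Lung cancer cell lines in 1536-well plates were pin-tool dosed one day after seeding with one drug alone or with a fixed anchor-drug dose plus five library-drug doses (not always all listed) in √10 steps, then fixed, stained and imaged at 4× after 5 days.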

[2] = compound: CCN1C(=O)C2=CC(=C(N=C2N(C1=O)C3CC3)N)C(=O)N + Nc1ncn([C@H]2C[C@H](O)[C@@H](CO)O2)c(=O)n1 [Decitabine] (partner 2 µM)
Method in brief: as §1

[3] = compound: CCN1C(=O)C2=CC(=C(N=C2N(C1=O)C3CC3)N)C(=O)N + Cc1cc(Nc2cc(N3CCN(C)CC3)nc(Sc3ccc(NC(=O)C4CC4)cc3)n2)n[nH]1 [Tozasertib] (partner 0.1 µM)
Method in brief: as §1

[4] = compound: CCN1C(=O)C2=CC(=C(N=C2N(C1=O)C3CC3)N)C(=O)N + Nc1nc2[nH]cc(CCc3ccc(C(=O)N[C@@H](CCC(=O)O)C(=O)O)cc3)c2c(=O)[nH]1 [Pemetrexed] (partner 0.2 µM)
Method in brief: as §1

[5] = compound: CCN1C(=O)C2=CC(=C(N=C2N(C1=O)C3CC3)N)C(=O)N + CC(=O)c1c(C)c2cnc(Nc3ccc(N4CCNCC4)cn3)nc2n(C2CCCC2)c1=O [Palbociclib] (partner 0.5 µM)
Method in brief: as §1

[6] = compound: CCN1C(=O)C2=CC(=C(N=C2N(C1=O)C3CC3)N)C(=O)N + COc1cccc2cc(-c3nc([C@H]4CC[C@H](C(=O)O)CC4)n4ncnc(N)c34)[nH]c12 [OSI-027] (partner 0.5 µM)
Method in brief: as §1

[7] = compound: CCN1C(=O)C2=CC(=C(N=C2N(C1=O)C3CC3)N)C(=O)N + O=C(CCCCCCC(=O)Nc1ccccc1)NO [Vorinostat] (partner 1 µM)
Method in brief: as §1

[8] = compound: CCN1C(=O)C2=CC(=C(N=C2N(C1=O)C3CC3)N)C(=O)N + NC(=O)Nc1cc(-c2cccc(F)c2)sc1C(=O)N[C@H]1CCCNC1 [AZD7762] (partner 0.2 µM)
Method in brief: as §1

[9] = compound: CCN1C(=O)C2=CC(=C(N=C2N(C1=O)C3CC3)N)C(=O)N + CCNC(=O)c1noc(-c2cc(C(C)C)c(O)cc2O)c1-c1ccc(CN2CCOCC2)cc1 [Luminespib] (partner 0.01 µM)
Method in brief: as §1

[10] = compound: CCN1C(=O)C2=CC(=C(N=C2N(C1=O)C3CC3)N)C(=O)N + Cc1nc(Nc2ncc(C(=O)Nc3c(C)cccc3Cl)s2)cc(N2CCN(CCO)CC2)n1 [Dasatinib] (partner 0.075 µM)
Method in brief: as §1

[11] = compound: CCN1C(=O)C2=CC(=C(N=C2N(C1=O)C3CC3)N)C(=O)N + CC(=O)Nc1cccc(-n2c(=O)n(C3CC3)c(=O)c3c(Nc4ccc(I)cc4F)n(C)c(=O)c(C)c32)c1 [Trametinib] (partner 0.02 µM)
Method in brief: as §1

[12] = compound: CCN1C(=O)C2=CC(=C(N=C2N(C1=O)C3CC3)N)C(=O)N + COc1cc2c(Oc3ccc(NC(=O)C4(C(=O)Nc5ccc(F)cc5)CC4)cc3F)ccnc2cc1OCCCN1CCOCC1 [Foretinib] (partner 0.25 µM)
Method in brief: as §1

[13] = compound: CCN1C(=O)C2=CC(=C(N=C2N(C1=O)C3CC3)N)C(=O)N + O=C(c1cc(Cc2n[nH]c(=O)c3ccccc23)ccc1F)N1CCN(C(=O)C2CC2)CC1 [Olaparib] (partner 8 µM)
Method in brief: as §1

[14] = compound: CCN1C(=O)C2=CC(=C(N=C2N(C1=O)C3CC3)N)C(=O)N
Method in brief: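 MetaXpress counted nuclei in 4× images of lung cancer cell lines that had been fixed, permeabilised and Hoechst-stained in one step. Before that, cells in 1536-well plates were kept overnight at 37 °C, pinned with five √10-spaced library-drug doses on vehicle-anchored plates, and cultured 5 days without medium change. Viability takes treated-well nuclei over vehicle-well nuclei and uses the median across plates. Plates were accepted only at control CV below 25% and at least one doubling.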

SW 900 gave a relative viability ([1]; first compound 0.253 µM) of 0.498, a relative viability ([1]; first compound 0.8 µM) of 0.625 and a relative viability ([1]; first compound 2.53 µM) of 0.493. It also gave a relative viability ([1]; first compound 8 µM) of 0.563, a relative viability ([2]; first compound 0.253 µM) of 0.347 and a relative viability ([2]; first compound 0.8 µM) of 0.511. The relative viability ([2]; first compound 2.53 µM) was 0.49, the relative viability ([2]; first compound 8 µM) was 0.443 and the relative viability ([3]; first compound 0.253 µM) was 0.553. It also gave a relative viability ([3]; first compound 0.8 µM) of 0.507, a relative viability ([3]; first compound 2.53 µM) of 0.457 and a relative viability ([3]; first compound 8 µM) of 0.446. It also gave a relative viability ([4]; first compound 0.253 µM) of 0.462, a relative viability ([4]; first compound 0.8 µM) of 0.517 and a relative viability ([4]; first compound 2.53 µM) of 0.52. It also gave a relative viability ([4]; first compound 8 µM) of 0.473, a relative viability ([5]; first compound 0.253 µM) of 0.551 and a relative viability ([5]; first compound 0.8 µM) of 0.558. For the same cell line, the relative viability ([5]; first compound 2.53 µM) was 0.521, the relative viability ([5]; first compound 8 µM) was 0.669 and the relative viability ([6]; first compound 0.253 µM) was 0.568. For the same cell line, the relative viability ([6]; first compound 0.8 µM) was 0.531, the relative viability ([6]; first compound 2.53 µM) was 0.475 and the relative viability ([6]; first compound 8 µM) was 0.731. For the same cell line, the relative viability ([7]; first compound 0.253 µM) was 0.434, the relative viability ([7]; first compound 0.8 µM) was 0.582 and the relative viability ([7]; first compound 2.53 µM) was 0.524. It also gave a relative viability ([7]; first compound 8 µM) of 0.538, a relative viability ([8]; first compound 0.253 µM) of 0.601 and a relative viability ([8]; first compound 0.8 µM) of 0.643. It also gave a relative viability ([8]; first compound 2.53 µM) of 0.635, a relative viability ([8]; first compound 8 µM) of 0.633 and a relative viability ([9]; first compound 0.253 µM) of 0.217. For the same cell line, the relative viability ([9]; first compound 0.8 µM) was 0.193, the relative viability ([9]; first compound 2.53 µM) was 0.174 and the relative viability ([9]; first compound 8 µM) was 0.166. It also gave a relative viability ([10]; first compound 0.253 µM) of 0.447, a relative viability ([10]; first compound 0.8 µM) of 0.599 and a relative viability ([10]; first compound 2.53 µM) of 0.68. For the same cell line, the relative viability ([10]; first compound 8 µM) was 0.511, the relative viability ([11]; first compound 0.253 µM) was 0.81 and the relative viability ([11]; first compound 0.8 µM) was 0.864. It also gave a relative viability ([11]; first compound 2.53 µM) of 0.75, a relative viability ([11]; first compound 8 µM) of 0.641 and a relative viability ([12]; first compound 0.253 µM) of 1.03. The relative viability ([12]; first compound 0.8 µM) was 0.996, the relative viability ([12]; first compound 2.53 µM) was 0.837 and the relative viability ([12]; first compound 8 µM) was 1.03. For the same cell line, the relative viability ([13]; first compound 0.253 µM) was 0.84, the relative viability ([13]; first compound 0.8 µM) was 1.1 and the relative viability ([13]; first compound 2.53 µM) was 0.955. For the same cell line, the relative viability ([13]; first compound 8 µM) was 0.928, the relative viability ([14]; 0.253 µM) was 0.672 and the relative viability ([14]; 0.8 µM) was 0.717. For the same cell line, the relative viability ([14]; 2.53 µM) was 0.785 and the relative viability ([14]; 8 µM) was 0.786.
With NCI-H522 the relative viability ([1]; first compound 0.253 µM) was 0.552, the relative viability ([1]; first compound 0.8 µM) was 0.565 and the relative viability ([1]; first compound 2.53 µM) was 0.705. For the same cell line, the relative viability ([1]; first compound 8 µM) was 0.546, the relative viability ([2]; first compound 0.253 µM) was 0.56 and the relative viability ([2]; first compound 0.8 µM) was 0.73. For the same cell line, the relative viability ([2]; first compound 2.53 µM) was 0.748, the relative viability ([2]; first compound 8 µM) was 0.723 and the relative viability ([3]; first compound 0.253 µM) was 0.593. It also gave a relative viability ([3]; first compound 0.8 µM) of 0.478, a relative viability ([3]; first compound 2.53 µM) of 0.496 and a relative viability ([3]; first compound 8 µM) of 0.489. The relative viability ([4]; first compound 0.253 µM) was 1.1, the relative viability ([4]; first compound 0.8 µM) was 0.976 and the relative viability ([4]; first compound 2.53 µM) was 0.792. The relative viability ([4]; first compound 8 µM) was 0.926, the relative viability ([5]; first compound 0.253 µM) was 0.954 and the relative viability ([5]; first compound 0.8 µM) was 0.966. For the same cell line, the relative viability ([5]; first compound 2.53 µM) was 0.794, the relative viability ([5]; first compound 8 µM) was 1.1 and the relative viability ([6]; first compound 0.253 µM) was 0.715. It also gave a relative viability ([6]; first compound 0.8 µM) of 0.623, a relative viability ([6]; first compound 2.53 µM) of 0.647 and a relative viability ([6]; first compound 8 µM) of 0.722. The relative viability ([7]; first compound 0.253 µM) was 0.924, the relative viability ([7]; first compound 0.8 µM) was 0.81 and the relative viability ([7]; first compound 2.53 µM) was 0.924. For the same cell line, the relative viability ([7]; first compound 8 µM) was 1.01, the relative viability ([8]; first compound 0.253 µM) was 0.726 and the relative viability ([8]; first compound 0.8 µM) was 0.735. The relative viability ([8]; first compound 2.53 µM) was 0.952, the relative viability ([8]; first compound 8 µM) was 0.922 and the relative viability ([9]; first compound 0.253 µM) was 1.19. The relative viability ([9]; first compound 0.8 µM) was 0.977, the relative viability ([9]; first compound 2.53 µM) was 1.12 and the relative viability ([9]; first compound 8 µM) was 1.05. For the same cell line, the relative viability ([10]; first compound 0.253 µM) was 0.761, the relative viability ([10]; first compound 0.8 µM) was 0.858 and the relative viability ([10]; first compound 2.53 µM) was 0.992. The relative viability ([10]; first compound 8 µM) was 0.753, the relative viability ([11]; first compound 0.253 µM) was 0.712 and the relative viability ([11]; first compound 0.8 µM) was 0.797. The relative viability ([11]; first compound 2.53 µM) was 0.792, the relative viability ([11]; first compound 8 µM) was 0.709 and the relative viability ([13]; first compound 0.253 µM) was 0.6. For the same cell line, the relative viability ([13]; first compound 0.8 µM) was 0.678, the relative viability ([13]; first compound 2.53 µM) was 0.555 and the relative viability ([13]; first compound 8 µM) was 0.65. The relative viability ([14]; 0.253 µM) was 0.876, the relative viability ([14]; 0.8 µM) was 0.985 and the relative viability ([14]; 2.53 µM) was 0.983. For the same cell line, the relative viability ([14]; 8 µM) was 0.906.
